Assay results published in publication PMC8909834, “An Orally Bioavailable and Highly Efficacious Inhibitor of CDK9/FLT3 for the Treatment of Acute Myeloid Leukemia” (Cancers, 2022).

Tests used:
Assay in all cases: Kinase Hotspot radiolabel assay
Format in all cases: biochemical
Settings in all cases: read-out: % Residual Activity
ACK1 = biological target: T1, ACK1 (Homo sapiens, UniProt Q07912)
T1 construct: purchased Reaction Biology Corporation (Kinase HotSpot)
Procedure, shortened: (§1)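 Percent inhibition is from a radiometric Hotspot assay at 1 µM compound. The panel spans 369 kinases, and Ki measurement follows for those inhibited over 90%.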

ALK6/BMPR1B = biological target: T2, ALK6/BMPR1B (Homo sapiens, UniProt O00238)
T2 construct: purchased Reaction Biology Corporation (Kinase HotSpot)
Procedure, shortened: as §1

CTK/MATK = biological target: T3, CTK/MATK (Homo sapiens, UniProt P42679)
T3 construct: purchased Reaction Biology Corporation (Kinase HotSpot)
Procedure, shortened: as §1

DDR2 = biological target: T4, DDR2 (Homo sapiens, UniProt Q16832)
T4 construct: purchased Reaction Biology Corporation (Kinase HotSpot)
Procedure, shortened: as §1

DRAK1/STK17A = biological target: T5, DRAK1/STK17A (Homo sapiens, UniProt Q9UEE5)
T5 construct: purchased Reaction Biology Corporation (Kinase HotSpot)
Procedure, shortened: as §1

DYRK4 = biological target: T6, DYRK4 (Homo sapiens, UniProt Q9NR20)
T6 construct: purchased Reaction Biology Corporation (Kinase HotSpot)
Procedure, shortened: as §1

ERBB2/HER2 = biological target: T7, ERBB2/HER2 (Homo sapiens, UniProt P04626)
T7 construct: purchased Reaction Biology Corporation (Kinase HotSpot)
Procedure, shortened: as §1

FGFR1 = biological target: T8, FGFR1 (Homo sapiens, UniProt P11362)
T8 construct: purchased Reaction Biology Corporation (Kinase HotSpot)
Procedure, shortened: as §1

IKKb/IKBKB = biological target: T9, IKKb/IKBKB (Homo sapiens, UniProt O14920)
T9 construct: purchased Reaction Biology Corporation (Kinase HotSpot)
Procedure, shortened: as §1

ITK = biological target: T10, ITK (Homo sapiens, UniProt Q08881)
T10 construct: purchased Reaction Biology Corporation (Kinase HotSpot)
Procedure, shortened: as §1

KSR1 = biological target: T11, KSR1 (Homo sapiens, UniProt Q8IVT5)
T11 construct: purchased Reaction Biology Corporation (Kinase HotSpot)
Procedure, shortened: as §1

LCK2/ICK = biological target: T12, LCK2/ICK (Homo sapiens, UniProt Q9UPZ9)
T12 construct: purchased Reaction Biology Corporation (Kinase HotSpot)
Procedure, shortened: as §1

LOK/STK10 = biological target: T13, LOK/STK10 (Homo sapiens, UniProt O94804)
T13 construct: purchased Reaction Biology Corporation (Kinase HotSpot)
Procedure, shortened: as §1

MELK = biological target: T14, MELK (Homo sapiens, UniProt Q14680)
T14 construct: purchased Reaction Biology Corporation (Kinase HotSpot)
Procedure, shortened: as §1

MNK2 = biological target: T15, MNK2 (Homo sapiens, UniProt Q9HBH9)
T15 construct: purchased Reaction Biology Corporation (Kinase HotSpot)
Procedure, shortened: as §1

MSSK1/STK23 = biological target: T16, MSSK1/STK23 (Homo sapiens, UniProt Q9UPE1)
T16 construct: purchased Reaction Biology Corporation (Kinase HotSpot)
Procedure, shortened: as §1

NEK9 = biological target: T17, NEK9 (Homo sapiens, UniProt Q8TD19)
T17 construct: purchased Reaction Biology Corporation (Kinase HotSpot)
Procedure, shortened: as §1

PAK6 = biological target: T18, PAK6 (Homo sapiens, UniProt Q9NQU5)
T18 construct: purchased Reaction Biology Corporation (Kinase HotSpot)
Procedure, shortened: as §1

PKCb1 = biological target: T19, PKCb1 (Homo sapiens, UniProt P05771)
T19 construct: purchased Reaction Biology Corporation (Kinase HotSpot)
Procedure, shortened: as §1

PKCnu/PRKD3 = biological target: T20, PKCnu/PRKD3 (Homo sapiens, UniProt O94806)
T20 construct: purchased Reaction Biology Corporation (Kinase HotSpot)
Procedure, shortened: as §1

PKN2/PRK2 = biological target: T21, PKN2/PRK2 (Homo sapiens, UniProt Q16513)
T21 construct: purchased Reaction Biology Corporation (Kinase HotSpot)
Procedure, shortened: as §1

PLK4/SAK = biological target: T22, PLK4/SAK (Homo sapiens, UniProt O00444)
T22 construct: purchased Reaction Biology Corporation (Kinase HotSpot)
Procedure, shortened: as §1

PRKX = biological target: T23, PRKX (Homo sapiens, UniProt P51817)
T23 construct: purchased Reaction Biology Corporation (Kinase HotSpot)
Procedure, shortened: as §1

PYK2 = biological target: T24, PYK2 (Homo sapiens, UniProt Q14289)
T24 construct: purchased Reaction Biology Corporation (Kinase HotSpot)
Procedure, shortened: as §1

SIK2 = biological target: T25, SIK2 (Homo sapiens, UniProt Q9H0K1)
T25 construct: purchased Reaction Biology Corporation (Kinase HotSpot)
Procedure, shortened: as §1

STK16 = biological target: T26, STK16 (Homo sapiens, UniProt O75716)
T26 construct: purchased Reaction Biology Corporation (Kinase HotSpot)
Procedure, shortened: as §1

TAOK2/TAO1 = biological target: T27, TAOK2/TAO1 (Homo sapiens, UniProt Q9UL54)
T27 construct: purchased Reaction Biology Corporation (Kinase HotSpot)
Procedure, shortened: as §1

TRKA = biological target: T28, TRKA (Homo sapiens, UniProt P04629)
T28 construct: purchased Reaction Biology Corporation (Kinase HotSpot)
Procedure, shortened: as §1

TYRO3/SKY = biological target: T29, TYRO3/SKY (Homo sapiens, UniProt Q06418)
T29 construct: purchased Reaction Biology Corporation (Kinase HotSpot)
Procedure, shortened: as §1

c-Kit = biological target: T30, c-Kit (Homo sapiens, UniProt P10721)
T30 construct: purchased Reaction Biology Corporation (Kinase HotSpot)
Procedure, shortened: as §1

T30 sequence (P10721 26-976): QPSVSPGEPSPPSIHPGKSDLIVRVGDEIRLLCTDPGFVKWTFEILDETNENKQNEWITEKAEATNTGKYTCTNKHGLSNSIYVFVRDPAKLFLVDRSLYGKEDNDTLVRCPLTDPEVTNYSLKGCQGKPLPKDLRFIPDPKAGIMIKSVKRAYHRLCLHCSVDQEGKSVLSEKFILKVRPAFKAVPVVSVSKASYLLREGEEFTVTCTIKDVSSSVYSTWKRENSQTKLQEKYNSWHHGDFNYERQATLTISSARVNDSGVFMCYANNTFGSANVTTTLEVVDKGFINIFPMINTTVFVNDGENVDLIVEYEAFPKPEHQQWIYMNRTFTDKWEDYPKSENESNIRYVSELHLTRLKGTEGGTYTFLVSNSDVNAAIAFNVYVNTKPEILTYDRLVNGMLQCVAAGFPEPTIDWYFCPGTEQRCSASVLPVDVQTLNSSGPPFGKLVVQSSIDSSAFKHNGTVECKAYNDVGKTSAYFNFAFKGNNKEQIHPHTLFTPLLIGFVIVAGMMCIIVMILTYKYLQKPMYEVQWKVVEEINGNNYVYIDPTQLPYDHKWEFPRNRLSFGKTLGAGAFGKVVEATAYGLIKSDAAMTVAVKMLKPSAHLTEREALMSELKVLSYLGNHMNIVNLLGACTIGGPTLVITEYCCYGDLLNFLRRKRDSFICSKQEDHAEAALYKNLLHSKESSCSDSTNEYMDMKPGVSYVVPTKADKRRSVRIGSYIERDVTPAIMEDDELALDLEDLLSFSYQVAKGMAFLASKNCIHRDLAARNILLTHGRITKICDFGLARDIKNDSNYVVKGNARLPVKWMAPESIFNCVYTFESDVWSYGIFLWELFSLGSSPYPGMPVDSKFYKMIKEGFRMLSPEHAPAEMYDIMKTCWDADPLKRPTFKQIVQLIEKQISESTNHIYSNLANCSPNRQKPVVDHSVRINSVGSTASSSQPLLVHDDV
T1 sequence (Q07912 whole entry): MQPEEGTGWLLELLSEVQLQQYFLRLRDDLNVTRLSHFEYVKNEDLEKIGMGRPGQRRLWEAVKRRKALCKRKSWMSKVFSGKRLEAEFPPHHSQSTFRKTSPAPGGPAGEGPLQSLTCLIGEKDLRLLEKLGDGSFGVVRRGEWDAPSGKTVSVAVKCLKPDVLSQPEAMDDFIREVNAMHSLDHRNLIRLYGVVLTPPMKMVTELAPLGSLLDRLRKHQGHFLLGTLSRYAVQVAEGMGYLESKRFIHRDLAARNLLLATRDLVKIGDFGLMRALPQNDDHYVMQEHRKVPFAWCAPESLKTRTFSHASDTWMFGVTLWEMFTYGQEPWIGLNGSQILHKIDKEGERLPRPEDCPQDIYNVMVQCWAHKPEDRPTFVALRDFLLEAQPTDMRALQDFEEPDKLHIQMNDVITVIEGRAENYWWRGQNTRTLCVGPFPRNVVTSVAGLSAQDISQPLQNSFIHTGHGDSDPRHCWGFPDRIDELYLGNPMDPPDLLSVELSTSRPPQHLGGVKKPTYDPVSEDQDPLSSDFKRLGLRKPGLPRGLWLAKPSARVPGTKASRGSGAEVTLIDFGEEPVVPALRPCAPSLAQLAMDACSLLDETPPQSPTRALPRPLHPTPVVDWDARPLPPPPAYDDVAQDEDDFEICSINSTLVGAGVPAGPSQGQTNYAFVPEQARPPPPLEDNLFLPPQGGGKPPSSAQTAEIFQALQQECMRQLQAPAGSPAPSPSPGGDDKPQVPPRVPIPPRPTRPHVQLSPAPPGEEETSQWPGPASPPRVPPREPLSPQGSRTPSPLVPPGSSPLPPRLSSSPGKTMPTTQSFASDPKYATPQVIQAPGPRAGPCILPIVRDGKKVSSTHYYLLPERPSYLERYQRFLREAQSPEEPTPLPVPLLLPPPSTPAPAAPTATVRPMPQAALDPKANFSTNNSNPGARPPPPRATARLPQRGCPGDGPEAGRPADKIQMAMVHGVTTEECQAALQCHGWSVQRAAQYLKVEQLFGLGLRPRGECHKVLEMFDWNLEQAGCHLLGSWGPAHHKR
T4 sequence (Q16832 22-855): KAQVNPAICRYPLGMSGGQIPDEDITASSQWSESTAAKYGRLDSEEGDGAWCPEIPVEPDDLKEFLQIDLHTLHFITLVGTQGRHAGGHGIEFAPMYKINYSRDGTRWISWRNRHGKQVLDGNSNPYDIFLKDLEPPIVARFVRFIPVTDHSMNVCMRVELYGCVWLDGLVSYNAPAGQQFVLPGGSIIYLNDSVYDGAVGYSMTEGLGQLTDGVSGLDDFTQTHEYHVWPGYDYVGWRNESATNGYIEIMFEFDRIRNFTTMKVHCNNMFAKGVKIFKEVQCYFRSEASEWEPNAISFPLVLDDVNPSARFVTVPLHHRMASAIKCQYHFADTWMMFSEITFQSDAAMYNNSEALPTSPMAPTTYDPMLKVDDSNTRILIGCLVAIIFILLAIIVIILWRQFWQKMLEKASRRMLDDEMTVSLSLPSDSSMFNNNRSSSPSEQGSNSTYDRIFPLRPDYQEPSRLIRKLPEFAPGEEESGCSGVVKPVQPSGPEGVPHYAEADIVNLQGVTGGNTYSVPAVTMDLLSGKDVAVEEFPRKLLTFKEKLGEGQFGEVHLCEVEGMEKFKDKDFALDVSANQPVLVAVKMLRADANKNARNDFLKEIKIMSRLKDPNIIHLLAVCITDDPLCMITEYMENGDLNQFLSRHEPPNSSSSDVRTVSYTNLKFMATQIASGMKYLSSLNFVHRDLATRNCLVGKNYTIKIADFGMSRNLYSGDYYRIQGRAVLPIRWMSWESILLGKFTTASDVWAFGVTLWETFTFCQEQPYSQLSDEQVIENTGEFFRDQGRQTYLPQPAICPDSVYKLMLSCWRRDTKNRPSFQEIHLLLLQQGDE
T24 sequence (Q14289 whole entry): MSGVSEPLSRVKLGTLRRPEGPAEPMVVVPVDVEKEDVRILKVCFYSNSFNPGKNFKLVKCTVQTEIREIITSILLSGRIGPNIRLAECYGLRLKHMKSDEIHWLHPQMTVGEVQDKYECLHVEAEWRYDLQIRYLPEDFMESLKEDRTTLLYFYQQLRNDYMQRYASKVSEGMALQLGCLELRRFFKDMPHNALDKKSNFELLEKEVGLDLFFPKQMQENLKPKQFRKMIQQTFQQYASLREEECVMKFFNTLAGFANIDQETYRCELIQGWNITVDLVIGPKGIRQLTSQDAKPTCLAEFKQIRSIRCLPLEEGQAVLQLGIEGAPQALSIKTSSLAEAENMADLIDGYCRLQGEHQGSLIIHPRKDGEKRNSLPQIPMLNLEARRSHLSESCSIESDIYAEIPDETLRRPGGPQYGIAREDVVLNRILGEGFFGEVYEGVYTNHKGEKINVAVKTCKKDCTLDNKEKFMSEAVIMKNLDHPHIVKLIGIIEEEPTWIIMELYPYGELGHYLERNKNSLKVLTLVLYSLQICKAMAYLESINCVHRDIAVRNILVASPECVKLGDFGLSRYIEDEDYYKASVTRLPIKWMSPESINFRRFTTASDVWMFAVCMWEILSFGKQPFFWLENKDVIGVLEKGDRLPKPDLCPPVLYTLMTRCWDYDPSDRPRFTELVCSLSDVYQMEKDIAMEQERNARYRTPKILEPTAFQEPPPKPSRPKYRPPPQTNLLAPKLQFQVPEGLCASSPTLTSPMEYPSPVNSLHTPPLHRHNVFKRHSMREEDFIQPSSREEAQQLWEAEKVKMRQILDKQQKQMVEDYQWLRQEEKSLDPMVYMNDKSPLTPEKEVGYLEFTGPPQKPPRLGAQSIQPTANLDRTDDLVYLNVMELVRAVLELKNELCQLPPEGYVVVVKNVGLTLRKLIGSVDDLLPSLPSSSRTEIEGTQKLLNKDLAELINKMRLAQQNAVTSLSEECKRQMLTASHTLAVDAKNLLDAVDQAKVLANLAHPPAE
T29 sequence (Q06418 41-890): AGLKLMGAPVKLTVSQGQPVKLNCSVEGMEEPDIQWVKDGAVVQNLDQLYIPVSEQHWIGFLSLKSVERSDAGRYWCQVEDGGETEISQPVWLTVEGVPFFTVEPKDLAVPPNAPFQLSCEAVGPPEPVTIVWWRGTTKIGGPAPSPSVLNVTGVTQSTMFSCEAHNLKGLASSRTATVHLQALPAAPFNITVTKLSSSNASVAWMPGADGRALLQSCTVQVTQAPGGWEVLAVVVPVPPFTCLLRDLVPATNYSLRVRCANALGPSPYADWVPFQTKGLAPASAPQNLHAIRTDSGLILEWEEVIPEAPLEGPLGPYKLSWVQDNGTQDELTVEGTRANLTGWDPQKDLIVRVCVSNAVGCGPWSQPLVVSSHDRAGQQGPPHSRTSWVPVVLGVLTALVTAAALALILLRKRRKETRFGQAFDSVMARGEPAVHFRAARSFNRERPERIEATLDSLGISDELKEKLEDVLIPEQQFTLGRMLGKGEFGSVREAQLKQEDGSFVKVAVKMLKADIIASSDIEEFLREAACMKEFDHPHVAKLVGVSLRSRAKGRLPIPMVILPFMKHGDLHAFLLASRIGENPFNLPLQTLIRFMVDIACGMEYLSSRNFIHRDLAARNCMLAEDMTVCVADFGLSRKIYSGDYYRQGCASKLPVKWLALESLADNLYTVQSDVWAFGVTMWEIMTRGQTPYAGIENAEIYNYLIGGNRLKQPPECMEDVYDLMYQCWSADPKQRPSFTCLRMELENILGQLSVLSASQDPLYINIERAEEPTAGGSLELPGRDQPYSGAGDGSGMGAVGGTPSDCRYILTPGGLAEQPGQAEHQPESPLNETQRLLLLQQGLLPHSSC
T5 sequence (Q9UEE5 whole entry): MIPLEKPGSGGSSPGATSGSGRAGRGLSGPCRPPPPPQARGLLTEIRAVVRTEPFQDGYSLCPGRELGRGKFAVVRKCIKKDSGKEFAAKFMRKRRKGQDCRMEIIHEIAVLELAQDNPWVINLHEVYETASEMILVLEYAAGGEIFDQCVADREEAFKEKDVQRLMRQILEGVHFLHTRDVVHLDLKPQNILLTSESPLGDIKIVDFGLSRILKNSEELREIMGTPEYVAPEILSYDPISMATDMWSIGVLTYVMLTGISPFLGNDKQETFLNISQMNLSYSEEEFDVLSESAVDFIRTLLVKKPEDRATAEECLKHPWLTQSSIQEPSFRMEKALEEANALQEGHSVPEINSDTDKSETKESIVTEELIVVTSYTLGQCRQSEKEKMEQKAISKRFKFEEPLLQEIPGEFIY

Molecule `Cc1cnc(N[C@H]2CC[C@H](N)CC2)nc1-c1cnc2ccc(-c3ccccc3)cn12` [CDDD11-8] has a remaining activity at 1 µM (ACK1) of 64.5%, a remaining activity at 1 µM (ALK6/BMPR1B) of 105% and a remaining activity at 1 µM (CTK/MATK) of 123%. For the same molecule, the remaining activity at 1 µM (DDR2) was 73.5%, the remaining activity at 1 µM (DRAK1/STK17A) was 92.5% and the remaining activity at 1 µM (DYRK4) was 93.6%. The remaining activity at 1 µM (ERBB2/HER2) was 101%, the remaining activity at 1 µM (FGFR1) was 96.8% and the remaining activity at 1 µM (IKKb/IKBKB) was 78.1%. The remaining activity at 1 µM (ITK) was 87.5%, the remaining activity at 1 µM (KSR1) was 92.3% and the remaining activity at 1 µM (LCK2/ICK) was 62.4%. It also gave a remaining activity at 1 µM (LOK/STK10) of 55.8%, a remaining activity at 1 µM (MELK) of 66.9% and a remaining activity at 1 µM (MNK2) of 83.5%. For the same molecule, the remaining activity at 1 µM (MSSK1/STK23) was 90.8%, the remaining activity at 1 µM (NEK9) was 84.7% and the remaining activity at 1 µM (PAK6) was 96.6%. For the same molecule, the remaining activity at 1 µM (PKCb1) was 87.4%, the remaining activity at 1 µM (PKCnu/PRKD3) was 35.1% and the remaining activity at 1 µM (PKN2/PRK2) was 88.3%. The remaining activity at 1 µM (PLK4/SAK) was 89.3%, the remaining activity at 1 µM (PRKX) was 77.4% and the remaining activity at 1 µM (PYK2) was 84.2%. The remaining activity at 1 µM (SIK2) was 35.8%, the remaining activity at 1 µM (STK16) was 75.2% and the remaining activity at 1 µM (TAOK2/TAO1) was 45%. For the same molecule, the remaining activity at 1 µM (TRKA) was 14.2%, the remaining activity at 1 µM (TYRO3/SKY) was 82.2% and the remaining activity at 1 µM (c-Kit) was 97.5%.
